According to the supplement of paper PMC10307832:

How the values were obtained:
Experiment in all cases: relative viability (nuclei count vs DMSO), 5 days (fraction); higher = more cells survive
201T = tested on: 201T
Summary of the method: (§1)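 Relative viability is defined as nuclei in treated wells over nuclei in vehicle wells. Duplicate plates were run and medians reported. Lung cancer cell lines in 1536-well plates were dosed by pin tool one day after seeding, with one drug or with a fixed anchor-drug dose plus five library-drug doses (not always all listed) in √10 steps, and nuclei were counted after 5 days.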

A-427 = tested on: A-427
Summary of the method: as §1

COR-L23 = tested on: COR-L23
Summary of the method: as §1

H3255 = tested on: H3255
Summary of the method: as §1

HCC-44 = tested on: HCC-44
Summary of the method: as §1

LCLC-103H = tested on: LCLC-103H
Summary of the method: as §1

LCLC-97TM1 = tested on: LCLC-97TM1
Summary of the method: as §1

LK-2 = tested on: LK-2
Summary of the method: as §1

LU99A = tested on: LU99A
Summary of the method: as §1

NCI-H1563 = tested on: NCI-H1563
Summary of the method: as §1

NCI-H1793 = tested on: NCI-H1793
Summary of the method: as §1

Q: For `NC(=O)Nc1cc(-c2cccc(F)c2)sc1C(=O)N[C@H]1CCCNC1` [AZD7762] + Cc1nc(NC(=O)N2CCC[C@H]2C(N)=O)sc1-c1ccnc(C(C)(C)C(F)(F)F)c1 [Alpelisib] (partner 2 µM), which relative viability (201T; first compound 0.01 µM) is on record?
A: 1.01

Q: What about the relative viability (201T; first compound 0.03162 µM) of the same molecule?
A: 1.05

Q: What about the relative viability (201T; first compound 0.1 µM) of the same molecule?
A: 1.02

Q: What about the relative viability (201T; first compound 0.3162 µM) of the same molecule?
A: 1.08

Q: What about the relative viability (201T; first compound 1 µM) of the same molecule?
A: 1.11

Q: What about the relative viability (A-427; first compound 0.01 µM) of the same molecule?
A: 1.07

Q: And the relative viability (A-427; first compound 0.03162 µM)?
A: 1.14

Q: What about the relative viability (A-427; first compound 0.1 µM) of the same molecule?
A: 1.1

Q: And the relative viability (A-427; first compound 0.3162 µM)?
A: 1.1

Q: And the relative viability (A-427; first compound 1 µM)?
A: 0.864

Q: And the relative viability (COR-L23; first compound 0.01 µM)?
A: 0.938

Q: What about the relative viability (COR-L23; first compound 0.03162 µM) of the same molecule?
A: 0.895

Q: What about the relative viability (COR-L23; first compound 0.1 µM) of the same molecule?
A: 0.797

Q: What about the relative viability (COR-L23; first compound 0.3162 µM) of the same molecule?
A: 0.621

Q: What about the relative viability (COR-L23; first compound 1 µM) of the same molecule?
A: 0.162

Q: And the relative viability (H3255; first compound 0.01 µM)?
A: 0.727

Q: What about the relative viability (H3255; first compound 0.03162 µM) of the same molecule?
A: 0.63

Q: And the relative viability (H3255; first compound 0.1 µM)?
A: 0.634

Q: And the relative viability (H3255; first compound 0.3162 µM)?
A: 0.705

Q: And the relative viability (H3255; first compound 1 µM)?
A: 0.357

Q: What about the relative viability (HCC-44; first compound 0.01 µM) of the same molecule?
A: 0.818

Q: What about the relative viability (HCC-44; first compound 0.03162 µM) of the same molecule?
A: 0.751

Q: What about the relative viability (HCC-44; first compound 0.1 µM) of the same molecule?
A: 0.831

Q: What about the relative viability (HCC-44; first compound 0.3162 µM) of the same molecule?
A: 0.755

Q: And the relative viability (HCC-44; first compound 1 µM)?
A: 0.952

Q: And the relative viability (LCLC-103H; first compound 0.01 µM)?
A: 1.01

Q: And the relative viability (LCLC-103H; first compound 0.03162 µM)?
A: 0.962

Q: What about the relative viability (LCLC-103H; first compound 0.1 µM) of the same molecule?
A: 0.889

Q: And the relative viability (LCLC-103H; first compound 0.3162 µM)?
A: 0.977

Q: What about the relative viability (LCLC-103H; first compound 1 µM) of the same molecule?
A: 0.9

Q: And the relative viability (LCLC-97TM1; first compound 0.01 µM)?
A: 0.292

Q: What about the relative viability (LCLC-97TM1; first compound 0.03162 µM) of the same molecule?
A: 0.272

Q: And the relative viability (LCLC-97TM1; first compound 0.1 µM)?
A: 0.314

Q: What about the relative viability (LCLC-97TM1; first compound 0.3162 µM) of the same molecule?
A: 0.278

Q: And the relative viability (LCLC-97TM1; first compound 1 µM)?
A: 0.298

Q: And the relative viability (LK-2; first compound 0.01 µM)?
A: 1.21

Q: What about the relative viability (LK-2; first compound 0.03162 µM) of the same molecule?
A: 0.946

Q: What about the relative viability (LK-2; first compound 0.1 µM) of the same molecule?
A: 0.976

Q: What about the relative viability (LK-2; first compound 0.3162 µM) of the same molecule?
A: 0.838

Q: What about the relative viability (LK-2; first compound 1 µM) of the same molecule?
A: 0.618

Q: What about the relative viability (LU99A; first compound 0.01 µM) of the same molecule?
A: 0.575

Q: What about the relative viability (LU99A; first compound 0.03162 µM) of the same molecule?
A: 0.568

Q: What about the relative viability (LU99A; first compound 0.1 µM) of the same molecule?
A: 0.543

Q: What about the relative viability (LU99A; first compound 0.3162 µM) of the same molecule?
A: 0.514

Q: What about the relative viability (LU99A; first compound 1 µM) of the same molecule?
A: 0.329

Q: What about the relative viability (NCI-H1563; first compound 0.01 µM) of the same molecule?
A: 1.01

Q: What about the relative viability (NCI-H1563; first compound 0.03162 µM) of the same molecule?
A: 0.918

Q: And the relative viability (NCI-H1563; first compound 0.1 µM)?
A: 0.978

Q: What about the relative viability (NCI-H1563; first compound 0.3162 µM) of the same molecule?
A: 0.943

Q: And the relative viability (NCI-H1563; first compound 1 µM)?
A: 0.76

Q: What about the relative viability (NCI-H1793; first compound 0.01 µM) of the same molecule?
A: 0.835

Q: And the relative viability (NCI-H1793; first compound 0.03162 µM)?
A: 0.795
